Results from patent publication US11660293B2, “Substituted 2-azabicyclo[3.1.1]heptane and 2-azabicyclo[3.2.1]octane derivatives as orexin receptor antagonists” (Chronos Therapeutics Limited, priority 2017, dated 2023).

Assays:
[1] = target: human Orexin type 1 receptors (Homo sapiens (Human), UniProt O43613); experiment: Scintillation Proximity Assay (SPA) binding assay, [3H]SB-674042 displacement, CHO-hOX1 membranes
[2] = target: human Orexin type 2 receptors (Homo sapiens (Human), UniProt O43614); experiment: Scintillation Proximity Assay (SPA) binding assay, [3H]EMPA displacement, HEK-hOX2 membranes
Chain of human Orexin type 2 receptors (O43614 whole entry): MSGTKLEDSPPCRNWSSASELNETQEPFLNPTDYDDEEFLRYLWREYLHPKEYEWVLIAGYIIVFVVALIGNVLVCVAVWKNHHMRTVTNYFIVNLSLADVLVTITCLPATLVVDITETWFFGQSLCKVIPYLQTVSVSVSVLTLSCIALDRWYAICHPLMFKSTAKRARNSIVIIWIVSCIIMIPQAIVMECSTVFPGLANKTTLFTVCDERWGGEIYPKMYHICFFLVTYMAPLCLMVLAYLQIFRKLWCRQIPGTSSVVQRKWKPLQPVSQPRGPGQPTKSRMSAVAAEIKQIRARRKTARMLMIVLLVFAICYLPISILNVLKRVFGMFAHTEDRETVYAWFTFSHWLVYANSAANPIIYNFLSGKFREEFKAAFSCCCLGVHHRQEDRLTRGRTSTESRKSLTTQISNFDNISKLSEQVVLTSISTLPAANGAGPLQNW

Chain of human Orexin type 1 receptors (O43613 whole entry): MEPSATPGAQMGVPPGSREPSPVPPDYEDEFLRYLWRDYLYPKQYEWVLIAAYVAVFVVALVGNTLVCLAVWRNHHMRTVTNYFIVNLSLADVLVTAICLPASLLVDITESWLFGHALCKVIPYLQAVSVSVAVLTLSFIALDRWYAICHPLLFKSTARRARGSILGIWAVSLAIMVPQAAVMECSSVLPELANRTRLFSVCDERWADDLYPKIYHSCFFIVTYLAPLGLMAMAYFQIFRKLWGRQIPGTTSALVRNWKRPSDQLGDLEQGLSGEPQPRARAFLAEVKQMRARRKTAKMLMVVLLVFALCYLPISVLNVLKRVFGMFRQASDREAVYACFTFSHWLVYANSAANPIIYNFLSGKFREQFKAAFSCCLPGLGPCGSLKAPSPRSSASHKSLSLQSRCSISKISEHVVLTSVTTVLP

Row | Compound | OX1 pKi (SPA binding) ([1]; Table 2, [3H]SB-674042 2 nM) | OX2 pKi (SPA binding) ([2]; Table 2, [3H]EMPA 2 nM) | OX1 pKi (SPA binding) ([1]; Table 1, [3H]SB-674042 2 nM) | OX2 pKi (SPA binding) ([2]; Table 1, [3H]EMPA 2 nM)
1 | C[C@@H]1C2CC(C2)N(C(=O)c2cc(F)ccc2-n2nccn2)C1CNc1nc2ccc(F)cc2s1 (mixture of isomers) [Example 168, cis-6-fluoro-N-({2-[5-fluoro-2-(2H-1,2,3-triazol-2-yl)benzoyl]-4-methyl-2-azabicyclo[3.1.1]heptan-3-yl}methyl)-1,3-benzothiazol-2-amine] | 8.46 | 5.88 |  | 
2 | Cc1ccc(-n2nccn2)c(C(=O)N2C3CC(C3)[C@@H](C)C2CNc2cnc3ccccc3n2)n1 (single isomer, unassigned) [Example 159, N-{[(3S,4R) or (3R,4S)-4-methyl-2-[6-methyl-3-(2H-1,2,3-triazol-2-yl)pyridine-2-carbonyl]-2-azabicyclo[3.1.1]heptan-3-yl]methyl}quinoxalin-2-amine] | 6.84 | 4.59 |  | 
3 | Cc1ccc(-n2nccn2)c(C(=O)N2C3CC(C3)[C@@H](C)C2CNc2cnc(C(F)(F)F)cn2)c1 (some centres unmarked) [Example 254] | 8.37 | 5.12 |  | 
4 | C[C@@H]1C2CC(C2)N(C(=O)c2cc(F)ccc2-n2nccn2)C1CNc1cnc2ccccc2n1 (mixture of isomers) [Example 187, cis-N-({2-[5-fluoro-2-(2H-1,2,3-triazol-2-yl)benzoyl]-4-methyl-2-azabicyclo[3.1.1]heptan-3-yl}methyl)quinoxalin-2-amine] | 8.19 | 5.63 |  | 
5 | Cc1ccc(-n2nccn2)c(C(=O)N2C3CC(C3)[C@@H](C)C2CNc2cnc3ccccc3n2)n1 (mixture of isomers) [Example 158, cis-N-({4-methyl-2-[6-methyl-3-(2H-1,2,3-triazol-2-yl)pyridine-2-carbonyl]-2-azabicyclo[3.1.1]heptan-3-yl}methyl)quinoxalin-2-amine] | 8.4 | 5.74 |  | 
6 | Cc1ccc(-n2nccn2)c(C(=O)N2C3CC(C3)[C@H](C)C2CNc2nc3ccccc3s2)n1 (stereo partly drawn) [Example 150, trans-N-({4-methyl-2-[6-methyl-3-(2H-1,2,3-triazol-2-yl)pyridine-2-carbonyl]-2-azabicyclo[3.1.1]heptan-3-yl}methyl)-1,3-benzothiazol-2-amine] | 7.5 | 6.14 |  | 
7 | C[C@@H]1C2CC(C2)N(C(=O)c2cc(F)ccc2-n2nccn2)C1CNc1cnc(C2CC2)cn1 (some centres unmarked) [Example 258] | 7.07 | 5.35 |  | 
8 | Cc1cnc(-n2nccn2)c(C(=O)N2C3CC(C3)[C@@H](C)C2COc2ccc(F)cc2)n1 (mixture of isomers) [Example 145, cis-3-[(4-fluorophenoxy)methyl]-4-methyl-2-[6-methyl-3-(2H-1,2,3-triazol-2-yl)pyrazine-2-carbonyl]-2-azabicyclo[3.1.1]heptane] | 7.03 | 5.62 |  | 
9 | C[C@@H]1C2CC(C2)N(C(=O)c2cc(Cl)ccc2-n2nccn2)C1CNc1cnc2ncccc2n1 (mixture of isomers) [Example 206, cis-N-({2-[5-chloro-2-(2H-1,2,3-triazol-2-yl)benzoyl]-4-methyl-2-azabicyclo[3.1.1]heptan-3-yl}methyl)pyrido[2,3-b]pyrazin-2-amine] | 7.79 | 5.06 |  | 
10 | Cc1ccc(-n2nccn2)c(C(=O)N2C3CC(C3)[C@@H](C)C2CNc2nc3ccc(F)cc3s2)n1 (mixture of isomers) [Example 152, cis-6-fluoro-N-({4-methyl-2-[6-methyl-3-(2H-1,2,3-triazol-2-yl)pyridine-2-carbonyl]-2-azabicyclo[3.1.1]heptan-3-yl}methyl)-1,3-benzothiazol-2-amine] | 8.68 | 6.1 |  | 
11 | Cc1ccc(-n2nccn2)c(C(=O)N2C3CC(C3)[C@@H](C)C2CNc2nc3ccccc3s2)n1 (stereo partly drawn) [Example 178, cis-N-({4-methyl-2-[6-methyl-3-(2H-1,2,3-triazol-2-yl)pyridine-2-carbonyl]-2-azabicyclo[3.1.1]heptan-3-yl}methyl)-1,3-benzothiazol-2-amine] | 8.52 | 5.63 |  | 
12 | C[C@@H]1C2CC(C2)N(C(=O)c2cc(F)ccc2-n2nccn2)C1CNc1ncc(C(F)(F)F)cn1 (some centres unmarked) [Example 251] | 7.65 | 4.69 |  | 
13 | Cc1nc(C(=O)N2C(COc3ccc(F)c(F)c3)CC3CC2C3)c(-c2ccccc2)s1 (centres unmarked) [Example 47] |  |  | 7.61 | 6.91
14 | C[C@@H]1C2CC(C2)N(C(=O)c2c(F)cccc2-n2nccn2)C1CNc1cnc(C(F)(F)F)cn1 (some centres unmarked) [Example 253] | 7.88 | 5 |  | 
15 | Cc1ccc(-n2nccn2)c(C(=O)N2C3CC(C3)[C@@H](C)C2CNc2nc3cccnc3s2)n1 (stereo partly drawn) [Example 184, cis-N-({4-methyl-2-[6-methyl-3-(2H-1,2,3-triaozl-2-yl)pyridine-2-carbonyl]-2-azabicyclo[3.1.1]heptan-3-yl}methyl)-[1,3]thiazolo[5,4-b]pyridin-2-amine] | 8.08 | 5.07 |  | 
16 | Cc1ccc(-n2nccn2)c(C(=O)N2C3CC(C3)[C@H](C)C2COc2ccc(Cl)cc2)n1 (single isomer, unassigned) [Example 120, (3R,4R) or (3S,4S)-3-[(4-chlorophenoxy)methyl]-4-methyl-2-[6-methyl-3-(2H-1,2,3-triazol-2-yl)pyridine-2-carbonyl]-2-azabicyclo[3.1.1]heptane] | 8 | 5.98 |  | 
17 | Cc1ccc(-n2nccn2)c(C(=O)N2C3CC(C3)[C@@H](C)C2CNc2cnc(C(F)(F)F)cn2)c1 (single isomer, unassigned) [Example 256, N-{[(3R,4S) or (3S,4R)-4-methyl-2-[5-methyl-2-(2H-1,2,3-triazol-2-yl)benzoyl]-2-azabicyclo[3.1.1]heptan-3-yl]methyl}-5-(trifluoromethyl)pyrazin-2-amine] | 8.75 | 5.18 |  | 
18 | Cc1ccc(-n2nccn2)c(C(=O)N2C3CC(C3)[C@@H](C)C2CNc2ccc(C(F)(F)F)cn2)n1 (mixture of isomers) [Example 181, cis-N-({4-methyl-2-[6-methyl-3-(2H-1,2,3-triazol-2-yl)pyridine-2-carbonyl]-2-azabicyclo[3.1.1]heptan-3-yl}methyl)-5-(trifluoromethyl)pyridin-2-amine] | 8.09 | 5.09 |  | 
19 | C[C@@H]1C2CC(C2)N(C(=O)c2cc(Cl)ccc2-n2nccn2)C1CNc1ccc(C(F)(F)F)nn1 (stereo partly drawn) [Example 247, cis-N-({2-[5-chloro-2-(2H-1,2,3-triazol-2-yl)benzoyl]-4-methyl-2-azabicyclo[3.1.1]heptan-3-yl}methyl)-6-(trifluoromethyl)pyridazin-3-amine] | 6.74 | 4.88 |  | 
20 | C[C@@H]1C2CC(C2)N(C(=O)c2cc(Cl)ccc2-n2nccn2)C1CNc1nc2ccc(F)cc2s1 (mixture of isomers) [Example 171, cis-N-({2-[5-chloro-2-(2H-1,2,3-triazol-2-yl)benzoyl]-4-methyl-2-azabicyclo[3.1.1]heptan-3-yl}methyl)-6-fluoro-1,3-benzothiazol-2-amine] | 8.9 | 6.32 |  | 
21 | Cc1ccc(-n2cccn2)c(C(=O)N2C3CC(C3)[C@H](C)C2COc2ccc(F)cc2)n1 (mixture of isomers) [Example 122, trans-3-[(4-fluorophenoxy)methyl]-4-methyl-2-[6-methyl-3-(1H-pyrazol-1-yl)pyridine-2-carbonyl]-2-azabicyclo[3.1.1]heptane] | 7.22 | 5.4 |  | 
22 | Cc1ccc(-n2nccn2)c(C(=O)N2C3CC(C3)[C@@H](C)C2CNc2nc3ccccc3o2)n1 (single isomer, unassigned) [Example 226, N-{[(3S,4R) or (3R,3S)-4-methyl-2-[6-methyl-3-(2H-1,2,3-triazol-2-yl)pyridine-2-carbonyl]-2-azabicyclo[3.1.1]heptan-3-yl]methyl}-1,3-benzoxazol-2-amine] | 8.46 | 5.39 |  | 
23 | Cc1ccc(-n2nccn2)c(C(=O)N2C3CC(C3)[C@@H](C)C2COc2ccc(Cl)cn2)n1 (stereo partly drawn) [Example 99, cis-3-{[(5-chloropyridin-2-yl)oxy]methyl}-4-methyl-2-[6-methyl-3-(2H-1,2,3-triazol-2-yl)pyridine-2-carbonyl]-2-azabicyclo[3.1.1]heptane] |  |  | 7.37 | 6.18
24 | C[C@@H]1C2CC(C2)N(C(=O)c2cc(Cl)ccc2-n2nccn2)C1CNc1ncc(C(F)(F)F)cn1 (single isomer, unassigned) [Example 241, N-{[(3R,4S) or (3S,4R)-2-[5-chloro-2-(2H-1,2,3-triazol-2-yl)benzoyl]-4-methyl-2-azabicyclo[3.1.1]heptan-3-yl]methyl}-5-(trifluoromethyl)pyrimidin-2-amine] | 8.27 | 5.59 |  | 
25 | C[C@H]1C2CC(C2)N(C(=O)c2cc(F)ccc2-n2nccn2)C1COc1ccc(F)cc1 (mixture of isomers) [Example 128, trans-2-[5-fluoro-2-(2H-1,2,3-triazol-2-yl)benzoyl]-3-{(4-fluorophenoxy)methyl]-4-methyl-2-azabicyclo[3.1.1]heptane] | 6.85 | 5.61 |  | 
